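Tested at 5 concentrations; 48 h exposure; 96-well plates; endpoints linearly interpolated, else capped at highest concentration. The concentration for full growth arrest is given as TGI.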
Key:
Experiment in all cases: NCI anticancer screen, dose series, 48 h
786-0 renal = system: 786-0 renal
A498 renal = system: A498 renal
A549 NSCLC = system: A549 NSCLC
ACHN renal = system: ACHN renal
BT-549 breast = system: BT-549 breast
CAKI-1 renal = system: CAKI-1 renal
CCRF-CEM leukemia = system: CCRF-CEM leukemia
COLO 205 colon = system: COLO 205 colon
DU-145 prostate = system: DU-145 prostate
EKVX NSCLC = system: EKVX NSCLC
HCT-116 colon = system: HCT-116 colon
HCT-15 colon = system: HCT-15 colon
HL-60(TB) leukemia = system: HL-60(TB) leukemia
HOP-62 NSCLC = system: HOP-62 NSCLC
HOP-92 NSCLC = system: HOP-92 NSCLC
HS 578T breast = system: HS 578T breast
HT29 colon = system: HT29 colon
IGROV1 ovarian = system: IGROV1 ovarian
K-562 leukemia = system: K-562 leukemia
KM12 colon = system: KM12 colon
LOX IMVI melanoma = system: LOX IMVI melanoma
M14 melanoma = system: M14 melanoma
MALME-3M melanoma = system: MALME-3M melanoma
MCF7 breast = system: MCF7 breast
MDA-MB-231 breast = system: MDA-MB-231 breast
MDA-MB-435 = system: MDA-MB-435
MDA-N = system: MDA-N
MOLT-4 leukemia = system: MOLT-4 leukemia
NCI-H226 lung = system: NCI-H226 lung
NCI-H23 lung = system: NCI-H23 lung
NCI-H460 lung = system: NCI-H460 lung
NCI-H522 lung = system: NCI-H522 lung
NCI/ADR-RES ovarian = system: NCI/ADR-RES ovarian
OVCAR-3 ovarian = system: OVCAR-3 ovarian
OVCAR-4 ovarian = system: OVCAR-4 ovarian
OVCAR-5 ovarian = system: OVCAR-5 ovarian
OVCAR-8 ovarian = system: OVCAR-8 ovarian
PC-3 prostate = system: PC-3 prostate
RPMI-8226 leukemia = system: RPMI-8226 leukemia
RXF 393 renal = system: RXF 393 renal
SF-268 CNS = system: SF-268 CNS
SF-295 CNS = system: SF-295 CNS
SF-539 CNS = system: SF-539 CNS
SK-MEL-2 melanoma = system: SK-MEL-2 melanoma
SK-MEL-28 melanoma = system: SK-MEL-28 melanoma
SK-MEL-5 melanoma = system: SK-MEL-5 melanoma
SK-OV-3 ovarian = system: SK-OV-3 ovarian
SN12C renal = system: SN12C renal
SNB-19 CNS = system: SNB-19 CNS
SNB-75 CNS = system: SNB-75 CNS
SR leukemia = system: SR leukemia
SW-620 colon = system: SW-620 colon
T-47D breast = system: T-47D breast
TK-10 renal = system: TK-10 renal
U251 CNS = system: U251 CNS
UACC-257 melanoma = system: UACC-257 melanoma
UACC-62 melanoma = system: UACC-62 melanoma
UO-31 renal = system: UO-31 renal

Measured: TGI

N#CC(C#N)=Cc1c[nH]c(=O)[nH]c1=O
63.9 µM: CCRF-CEM leukemia
> 100 µM: all other assays above

Reference: PubChem BioAssay (NCI)
